Assay results published in US6342201B1, “Complex compounds for diagnosis of vascular diseases” (Institut for Diagnostikforschung GmbH an der Freien …, priority 1994, dated 2002).
“Also recorded” adds a separate entry of the source.

Legend:
[1] = system: arteriosclerotic plaques (aortic arch, a. carotis, abdominal aorta); experiment: In vivo gamma camera scintigraphy of WHHL-rabbits; set-up: species or system WHHL-rabbit
Protocol: (§1) The order of the dissected tissues for each B1 and B2 from left to right: thoracic aorta, right denuded a. carotis and left untreated a. carotis.
(§2) 2 mCi (1 ml) of the analog to b) labelled […]was applied to a narcotized WHHL-rabbit (Rompun/Ketavet 1:2) via an ear vein. WHHL-rabbits reveal due a missing or defect LDL receptor high LDL levels in blood and therefore show spontaneous arteriosclerotic vascular changes. During the experimental time span of 5 h after application, static photographs with various exposure times and positions were taken with a gamma camera (Elcint SP4 HR). 5 h after application the rabbit was killed and both an autoradiography and a Sudan III dyeing of the aorta were performed.

[2] = system: plaque as well as non-plaque regions of the aorta; experiment: Quantitative autoradiography and Sudan-III-dyeing of the removed aorta of WHHL-rabbits after i.v. application; set-up: species or system WHHL-rabbit; conditions: in vivo
Protocol: 74 MBq (2 mCi) of the respective compound according to the invention was applied via an ear vein in a WHHL-rabbit. 5 h p.i. the rabbit was killed and both a quantitative autoradiography and a Sudan-III-dyeing of the removed aorta were performed. The so-determined accumulation of the respective compounds according to the invention in the different tissues is listed in Table 1.
as §2, with “performed. The arteriosclerotic plagues in the region of the aortic arch of the WHHL-rabbits could be depicted with 10 min p.i. in vivo. […] The enrichment factor between the normal and arteriosclerotic wall regions was between 6 and 9, depending on the plaque formation (Sudan III dyeing).” for “performed.”

[3] = system: denuded (arteriosclerotic) right a. carotis; experiment: Scintigram and autoradiogram of a New Zealand rabbit with right a. carotis denuded by Fogarty-catheter; type: in vivo; conditions: right a. carotis denuded four weeks earlier, 0.5 h after i.v. application of 74 MBq
Text: as §1

Substance	Enrichment factor Plaque / Non-plaque [2]	further results
Tc-99m-Complex of Asp-Gly-Gly-Cys-Gly-Cys-Phe-(D-Trp)-Leu-Asp-Ile-Ile-Trp [Example 3 c]		enrichment activity in vivo in left lateral scintigram ([1]; WHHL-rabbit versus New Zealand control rabbit, 0.5 h after i.v. application of 74 MBq, aortic arch, left a. carotis, abdominal aorta): observable enrichment activity in vivo; also recorded: enrichment activity is visible in vivo
Tc-99m-Complex of N-(4-hydroxycarboxy-1-oxo-3-thia-but-1-yl)-Cys-(D-Trp)-Leu-Asp-Ile-Ile-Trp [Example 5 c]	9	
Tc-99m-Complex of N-(4-hydroxycarboxy-1-oxo-3-thia-but-1-yl)-Cys-His-Leu-Asp-Ile-Ile-Trp [Example 6 c]	5	
Tc-99m-Complex of N-(4-hydroxycarboxy-1-oxo-3-thia-but-1-yl)-Cys-Phe-(D-Trp)-Leu-Asp-Ile-Ile-Trp [Example 4 c]	14	
^99mTc-Complex of Asp-Gly-Gly-Cys-Gly-Cys-D-Trp-Leu-Asp-Ile-Ile-Trp [Example 2 c]		in vivo detection of the arteriosclerotic right a. carotis in anterior scintigram [3]: could be detected in vivo
^99mTc-Complex of Asp-Gly-Gly-Cys-Gly-Cys-His-Leu-Asp-Ile-Ile-Trp [Example 1 c]		time p.i. at which arteriosclerotic plaques in the region of the aortic arch could be depicted in vivo ([1]; WHHL-rabbit, 2 mCi via ear vein, gamma camera): 10 min
